Experimental data published in paper PMC4129175, “HPLC-Fingerprints and Antioxidant Constituents of Phyla nodiflora” (The Scientific World Journal, 2014).
Where two headings read alike, the source gives them in different places.

Tests used:
[1] = DPPH radical (DPPH∙) scavenging assay; conditions: concentration that scavenges 50% radicals; mean ± SD, n = 3
Description: In the DPPH radical (DPPH^∙) scavenging assay, fifty microliters of samples of various concentrations were mixed with 150 μl of DPPH^∙ solution (0.1 mM) dissolved in methanol. Each mixture was allowed to stand for 30 min and measured at 517 nm using a multiplate spectrophotometer (μQuant, Bio-Tek, USA). The scavenging ability was calculated using the following formula: (1) Scavenging ability (%) =(1−sample absorbance/control absorbance)×100%.

[2] = ABTS cation radical (ABTS∙+) decolorization/scavenging assay; conditions: concentration that scavenges 50% radicals; mean ± SD, n = 3
Description: The ABTS decolorization assay was performed as described, with slight modification. The ABTS cation radical (ABTS^∙+) was produced by reacting 7 mM stock solution of ABTS with 2.45 mM potassium persulfate (final concentration) and allowing the mixture to stand in the dark for 6–8 h at room temperature before use. The ABTS^∙+ solution was diluted to an absorbance of 0.7 ± 0.02 at 734 nm. Thirty microliters of samples of different concentrations were mixed with 170 μl of ABTS^∙+ working solution under a dark condition and shaken for 15 s. The absorbance was measured at 734 nm after 20 min. The scavenging capacity was calculated using the same formula as for the DPPH radical scavenging assay.

[3] = Superoxide anion radical (O2∙−) scavenging assay (xanthine/xanthine oxidase, NBT); format: biochemical; conditions: concentration that scavenges 50% radicals; mean ± SD, n = 3
Description: (§1) The procedures of O2 ^∙− scavenging activity and mushroom tyrosinase inhibitory effect were performed as previous report. In the O2 ^∙− scavenging assay, xanthine (0.1 mM, 15 μl) in 50 mM phosphate buffer (pH 7.4), NBT (25 μM, 16 μl), EDTA (0.1 μM, 14 μl), and 100 μl of various concentrations of test compounds were mixed in the 96-well plates. Reactions were initiated by adding 0.5 U xanthine oxidase. After 30 min, the absorbance of each mixture was measured at 540 nm. In the mushroom tyrosinase inhibitory assay, L-tyrosine (2 mM, 80 μl) in 50 mM phosphate buffer (pH 6.5) and various concentrations of test compounds (100 μl) were added to 96-well plates. After 10 min incubation, 20 U mushroom tyrosinase was added to start the reaction. The absorbance of each mixture was measured at 490 nm after 30 min incubation. The O2 ^∙− scavenging capacity and the percentage inhibition of mushroom tyrosinase were calculated using the same formula as for the DPPH radical scavenging assay.

[4] = set-up: method as in Lan et al. 2013 [15]; conditions: positive control; ref Lan et al. 2013 [15]; cited from earlier work
[5] = set-up: method as in Lan et al. 2013 [15]; conditions: positive control; ref Lan et al. 2013 [15]; cited from earlier work; remark: listed apart in the source
[6] = set-up: method as in Lan et al. 2013 [15]; conditions: positive control; ref Lan et al. 2013 [15]; cited from earlier work; remark: listed apart in the source
mushroom tyrosinase = mushroom tyrosinase (Agaricus bisporus, UniProt C7FF04); assay: Lineweaver-Burk kinetic study of tyrosinase inhibition; format: biochemical; conditions: Lineweaver-Burk plot, various concentrations of tyrosine
Description: as §1
(§2) This study used Lineweaver-Burk plots to determine the inhibitory mode of test samples [15]. The kinetic study was performed in the presence or absence of test samples with various concentrations of tyrosine or xanthine as the substrate.
Figure 2 Lineweaver-Burk plot of tyrosinase inhibition of (a) onopordin (4) and (b) eupafolin (7) with various concentrations of tyrosine. […]

xanthine oxidase (XO) = molecular target: T1, xanthine oxidase (XO) (Bos taurus, UniProt P80457); assay: Lineweaver-Burk kinetic study of xanthine oxidase inhibition; format: biochemical; conditions: for Ki / Vmax (xanthine oxidase): xanthine as substrate
T1 construct: purchased Sigma-Aldrich; host or cells: buttermilk
Description: as §1, §2
Figure 1 Lineweaver-Burk plot of xanthine oxidase inhibition of eupafolin (7) with various concentrations of xanthine. (×) Without eupafolin, (▲) 5 μM of eupafolin, (●) 10 μM of eupafolin, and (○) 20 μM of eupafolin. Data are presented as mean ± SD of three independent experiments.

T1 sequence (P80457 whole entry): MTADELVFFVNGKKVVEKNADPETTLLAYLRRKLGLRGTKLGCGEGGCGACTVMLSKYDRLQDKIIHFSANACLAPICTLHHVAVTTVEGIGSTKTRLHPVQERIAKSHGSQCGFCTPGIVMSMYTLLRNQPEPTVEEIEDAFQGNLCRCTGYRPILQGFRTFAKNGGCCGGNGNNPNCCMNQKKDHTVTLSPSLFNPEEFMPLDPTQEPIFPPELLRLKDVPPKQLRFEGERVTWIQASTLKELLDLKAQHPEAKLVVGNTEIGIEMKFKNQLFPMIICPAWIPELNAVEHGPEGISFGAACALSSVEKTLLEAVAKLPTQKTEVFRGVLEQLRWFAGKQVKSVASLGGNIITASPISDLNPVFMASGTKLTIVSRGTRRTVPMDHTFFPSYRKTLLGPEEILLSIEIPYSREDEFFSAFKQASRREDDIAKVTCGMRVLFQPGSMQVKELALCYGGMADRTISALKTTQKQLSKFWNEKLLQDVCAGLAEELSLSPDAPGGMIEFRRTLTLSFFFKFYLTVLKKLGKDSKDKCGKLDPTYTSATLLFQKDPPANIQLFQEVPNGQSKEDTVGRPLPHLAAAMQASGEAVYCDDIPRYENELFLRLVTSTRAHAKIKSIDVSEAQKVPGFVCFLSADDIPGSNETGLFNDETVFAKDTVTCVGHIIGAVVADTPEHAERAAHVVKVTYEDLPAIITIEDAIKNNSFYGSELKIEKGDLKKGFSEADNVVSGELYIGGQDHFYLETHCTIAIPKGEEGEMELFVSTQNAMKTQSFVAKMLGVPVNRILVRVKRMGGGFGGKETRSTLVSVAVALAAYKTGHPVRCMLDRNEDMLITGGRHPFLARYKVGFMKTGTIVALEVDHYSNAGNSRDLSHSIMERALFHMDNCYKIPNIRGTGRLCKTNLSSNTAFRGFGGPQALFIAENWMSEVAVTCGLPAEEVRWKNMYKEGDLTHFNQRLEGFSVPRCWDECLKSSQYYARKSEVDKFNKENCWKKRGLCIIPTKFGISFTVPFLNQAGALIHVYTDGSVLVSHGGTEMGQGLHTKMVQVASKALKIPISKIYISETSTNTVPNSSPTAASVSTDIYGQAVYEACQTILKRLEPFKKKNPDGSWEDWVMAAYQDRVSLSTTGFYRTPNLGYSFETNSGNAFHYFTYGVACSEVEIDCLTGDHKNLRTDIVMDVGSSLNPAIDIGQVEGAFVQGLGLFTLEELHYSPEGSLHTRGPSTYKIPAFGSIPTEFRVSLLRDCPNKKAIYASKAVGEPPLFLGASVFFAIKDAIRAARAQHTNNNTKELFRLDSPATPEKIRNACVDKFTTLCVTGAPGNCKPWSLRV
Chain of mushroom tyrosinase (C7FF04 1-392): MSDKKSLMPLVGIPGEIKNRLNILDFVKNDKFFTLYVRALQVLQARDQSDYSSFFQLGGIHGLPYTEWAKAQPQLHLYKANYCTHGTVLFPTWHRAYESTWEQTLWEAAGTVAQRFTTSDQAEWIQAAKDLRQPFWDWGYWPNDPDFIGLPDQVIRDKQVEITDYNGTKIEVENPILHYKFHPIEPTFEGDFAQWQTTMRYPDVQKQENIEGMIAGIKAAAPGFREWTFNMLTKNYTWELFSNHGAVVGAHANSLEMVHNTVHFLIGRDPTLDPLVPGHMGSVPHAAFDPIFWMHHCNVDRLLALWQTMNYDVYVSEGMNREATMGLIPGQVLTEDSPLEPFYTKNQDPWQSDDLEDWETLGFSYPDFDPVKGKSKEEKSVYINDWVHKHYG
Chain of mushroom tyrosinase (G1K3P4 entry or part of it, further chain): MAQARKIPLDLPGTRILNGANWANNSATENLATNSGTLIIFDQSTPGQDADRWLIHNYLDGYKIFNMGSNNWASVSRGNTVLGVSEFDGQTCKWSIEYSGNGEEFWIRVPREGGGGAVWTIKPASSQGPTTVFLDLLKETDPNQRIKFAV

| SMILES | DPPH∙ SC50 [1] | ABTS∙+ SC50 [2] | O2∙− SC50 [3] | other results |
| --- | --- | --- | --- | --- |
| O=C1O[C@H]([C@@H](O)CO)C(O)=C1O [Vit. C, L-Ascorbic acid, reference compound] | 64.6 ± 4.4 µM | 49.9 ± 2.1 µM | 23.5 ± 1.7 µM |  |
| O=c1cc(-c2ccc(O)cc2)oc2cc(O)cc(O)c12 [Apigenin] |  |  |  | DPPH∙ SC50 [4]: >300 µM; ABTS∙+ SC50 [5]: 159.6 ± 4.4 µM; O2∙− SC50 [6]: 81.3 ± 2.0 µM |
| COc1cc(-c2cc(=O)c3c(O)cc(O)c(O)c3o2)ccc1O [Compound 6, 5,7,8,4′-tetrahydroxy-3′-methoxyflavone] | >300 µM | >300 µM | 34.6 ± 2.4 µM |  |
| COc1c(O)cc(O)c2c(=O)cc(-c3ccc(O)c(O)c3)oc12 [Compound 4, onopordin] | 24.7 ± 1.2 µM | 53.7 ± 3.9 µM | 23.5 ± 0.5 µM | Inhibitory mode on tyrosinase (mushroom tyrosinase): mixed-type inhibitor |
| COc1cc2oc(-c3ccc(O)c(O)c3)cc(=O)c2c(O)c1OC [Compound 5, cirsiliol] | 21.8 ± 1.2 µM | 58.4 ± 2.7 µM | 10.7 ± 1.3 µM |  |
| COc1c(O)cc(O)c2c(=O)cc(-c3ccc(O)cc3)oc12 [Compound 3, 4′-hydroxywogonin] | >300 µM | >300 µM | 59.9 ± 2.1 µM |  |
| COc1cc(-c2cc(=O)c3c(O)c(O)c(O)cc3o2)ccc1O [Compound 2, nodifloretin] | 198.2 ± 3.8 µM | 62.2 ± 2.5 µM | 42.3 ± 1.5 µM |  |
| COc1c(O)cc2oc(-c3ccc(O)c(O)c3)cc(=O)c2c1O [Compound 7, eupafolin] | 24.1 ± 0.4 µM | 30.5 ± 1.2 µM | 8.3 ± 0.4 µM | Ki (xanthine oxidase (XO); 7 at 5 μM): 4.48 µM; Vmax (xanthine oxidase) (xanthine oxidase (XO); 7 at 5 μM): 3.6 × 10^−2 ΔO.D./min; Ki (xanthine oxidase (XO); 7 at 10 μM): 5.05 µM; Vmax (xanthine oxidase) (xanthine oxidase (XO); 7 at 10 μM): 3.2 × 10^−2 ΔO.D./min; Ki (xanthine oxidase (XO); 7 at 20 μM): 8.93 µM; Vmax (xanthine oxidase) (xanthine oxidase (XO); 7 at 20 μM): 3.1 × 10^−2 ΔO.D./min; Inhibitory mode on xanthine oxidase (xanthine oxidase (XO); Lineweaver-Burk plot, various concentrations of xanthine): mixed-type inhibitor; Inhibitory mode on tyrosinase (mushroom tyrosinase): competitive inhibitor |
| COc1c(O)cc2oc(-c3ccc(O)cc3)cc(=O)c2c1O [Compound 8, hispidulin] | 57.5 ± 2.7 µM | 55.3 ± 3.8 µM |  |  |
